Test results from ChEMBL document CHEMBL1909550, “Designing 2-aminoimidazole alkaloids analogs with anti-biofilm activities: structure-activities relationships of polysubstituted triazoles” (Bioorg Med Chem Lett, 2011).

Columns and labels:
[1] = test system: Pseudoalteromonas sp. D41; assay: Antibiofilm activity against Pseudoalteromonas sp. D41 assessed as inhibition of bacterial adhesion after 15 hrs by fluorescence assay; type: functional; details: Pseudoalteromonas sp. D41, 15 h
Paracoccus sp. [2] = assay: Antibiofilm activity against Paracoccus sp. 4M6 assessed as inhibition of bacterial adhesion after 15 hrs by fluorescence assay; type: functional; details: Paracoccus sp. (in: a-proteobacteria), 4M6, 15 h
[3] = test system: Pseudoalteromonas sp. D41; assay: Antibiofilm activity against Pseudoalteromonas sp. D41 assessed as inhibition of bacterial adhesion at 200 uM after 15 hrs by fluorescence assay relative to control; type: functional; details: Pseudoalteromonas sp. D41, 15 h
Paracoccus sp. [4] = assay: Antibiofilm activity against Paracoccus sp. 4M6 assessed as inhibition of bacterial adhesion at 200 uM after 15 hrs by fluorescence assay; type: functional; details: Paracoccus sp. (in: a-proteobacteria), 4M6, 15 h; values are per cent of control
[5] = Antibacterial activity against Pseudoalteromonas sp. D41 assessed as growth inhibition at 100 uM up to 6 hrs by viability assay; details: pseudoalteromonas sp. d41, 6 h
[6] = Antibacterial activity against Paracoccus sp. 4M6 assessed as growth inhibition at 100 uM up to 6 hrs by viability assay
Pseudomonas aeruginosa [7] = assay: Antibiofilm activity against Pseudomonas aeruginosa assessed as modulation of biofilm formation; type: functional, organism-based
Pseudomonas aeruginosa [8] = assay: Antibiofilm activity against Pseudomonas aeruginosa assessed as dispersion of bacterial biofilm; type: functional, organism-based
[9] = Antibacterial activity against Pseudoalteromonas sp. D41 assessed as growth inhibition at 10 uM up to 6 hrs by viability assay; details: pseudoalteromonas sp. d41, 6 h
[10] = Antibacterial activity against Paracoccus sp. 4M6 assessed as growth inhibition at 10 uM up to 6 hrs by viability assay

Row | SMILES | EC50 [1] [µM] | EC50 (Paracoccus sp. [2]) [µM] | further results
1 | COc1cccc(Cn2nncc2-c2ccccc2)c1 | > 200 | > 200 | inhibition at 200 µM [3]: 50.5%; response, % of control at 200 µM (Paracoccus sp. [4]): 142%
2 | COc1ccc(Cn2nncc2-c2ccccc2)cc1 | > 200 | > 200 | inhibition at 200 µM [3]: 70.9%; response, % of control at 200 µM (Paracoccus sp. [4]): 127%
3 | COc1cccc(Cn2nncc2Cc2ccccc2)c1 | > 200 | > 200 | inhibition at 200 µM [3]: 58.5%; response, % of control at 200 µM (Paracoccus sp. [4]): 149%
4 | COc1ccc(Cn2nncc2Cc2ccccc2)cc1 | > 200 | 199 | inhibition at 200 µM [3]: 55.5%
5 | COc1cccc(Cn2nncc2CCc2ccccc2)c1 | > 200 | > 200 | inhibition at 200 µM [3]: 86.4%; response, % of control at 200 µM (Paracoccus sp. [4]): 65.5%
6 | COc1ccc(Cn2nncc2CCc2ccccc2)cc1 | > 200 | > 200 | inhibition at 200 µM [3]: 78.5%; response, % of control at 200 µM (Paracoccus sp. [4]): 97.8%
7 | Oc1ccc(-c2cnnn2Cc2cccc(O)c2)cc1 | > 200 | > 200 | –
8 | COc1ccc(Cn2nncc2-c2ccc(OC)cc2)cc1 | > 200 | > 200 | –
9 | Oc1cccc(Cn2nncc2-c2cc(O)cc(O)c2)c1 | > 200 | > 200 | –
10 | Oc1ccc(Cn2nncc2-c2ccc(O)cc2)cc1 | > 200 | > 200 | –
11 | Oc1ccc(Cn2nncc2-c2cc(O)cc(O)c2)cc1 | > 200 | > 200 | –
12 | Oc1ccc(Cn2cc(-c3ccc(O)cc3)nn2)cc1 | > 200 | 131 | –
13 | Oc1ccc(Cn2cc(-c3cc(O)cc(O)c3)nn2)cc1 | > 200 | 181 | –
14 | COc1ccc(Cc2[nH]c(=N)n(C)c2Cc2ccc(O)cc2)cc1 [NAAMINE A] | – | – | EC50 (Pseudomonas aeruginosa [7]): 436 µM; EC50 (Pseudomonas aeruginosa [8]): 436 µM
15 | CCn1cc(C(=O)O)c(=O)c2cc(F)c(N3CCNCC3)cc21 [NORFLOXACIN] | – | – | growth inhibition (GI) [9]: Toxic; growth inhibition (GI) [10]: Toxic

More lines, main results first:

Row | EC50 [1] [µM] | EC50 (Paracoccus sp. [2]) [µM] | SMILES | further results
16 | > 200 | > 200 | COc1ccc(-c2cn(Cc3cccc(OC)c3)nn2)cc1 | –
17 | 62 | 199 | COc1ccc(Cn2cc(-c3cc(OC)cc(OC)c3)nn2)cc1 | growth inhibition (GI) [5]: Non-toxic
18 | 172 | > 200 | COc1ccc(-c2cnnn2Cc2cccc(OC)c2)cc1 | –
19 | 48.6 | > 200 | COc1cccc(Cn2nncc2-c2cc(OC)cc(OC)c2)c1 | growth inhibition (GI) [5]: Non-toxic
20 | 37.2 | 90.3 | COc1ccc(Cn2nncc2-c2cc(OC)cc(OC)c2)cc1 | growth inhibition (GI) [6]: Non-toxic; growth inhibition (GI) [5]: Non-toxic
21 | 34.8 | > 200 | COc1cccc(Cn2cc(-c3cc(OC)cc(OC)c3)nn2)c1 | growth inhibition (GI) [5]: Non-toxic
22 | > 200 | > 200 | COc1ccc(Cn2cc(-c3ccc(OC)cc3)nn2)cc1 | –
23 | 129 | 41.2 | Oc1ccc(-c2cn(Cc3cccc(O)c3)nn2)cc1 | growth inhibition (GI) [6]: Non-toxic
24 | > 200 | > 200 | Oc1cccc(Cn2cc(-c3cc(O)cc(O)c3)nn2)c1 | –
